The values below come from patent publication US10624887B2, “Compositions of (-)-17-(cyclobutylmethyl)morphinan-3,14,-diol” (priority 2010, dated 2020).

“Also recorded” adds a separate entry of the source.

Assay [1] has as its system streptozotocin (STZ) induced diabetes neuropathy. The assay can be described thus: Streptozotocin induced diabetic neuropathy, mechanical allodynia (von Frey filaments). It is filed as in vivo, Wistar rats. The settings on record: STZ diabetic neuropathic rats. The method, then:
The aim of this study was to evaluate the effect of oral administration of butorphanol in rats with streptozotocin (STZ) induced diabetes neuropathy. A single injection of streptozotocin (STZ) (40-70 mg/kg, i.p.) was used to induce diabetes in rats. The primary measurements were made mechanical and thermal allodynia designed to detect effects of the treatment(s) on neuropathic pain.
Wistar rats weighing 250±20 g were maintained on standard laboratory diet and having free access to tap water ad lib were employed in the present study. They were housed in the animal house and were exposed to 12 hr cycle of light and dark. The experiments were conducted in a semi-sound proof laboratory. Care of the animals was in accordance with guidelines for experimentation on animals.
The STZ-induced diabetes model was adapted from Arison et al (1967). […]
Mechano-allodynia was assessed using von Frey filaments. […] Both hind paws were tested for allodynia and the average of the two was recorded. Results were expressed in grams and determined before and 30 and 60 min after the administration of the test drugs.
The anti-nociceptive effect was plotted assessed having time (relative to dosing time point) on the x-axis and percent maximum possible effect (% MPE) on the y-axis. The results were expressed as mean±standard error of means (S.E.M.). […]

A further assay relates to nociception in rats. The assay can be described thus: Radiant heat tail flick test. It is filed as in vivo, Wistar rats. Particulars: butorphanol 1 mg/kg. The source says: The tail flick test was first described by D'Amour and Smith (1941), and remains essentially unchanged in application. (See generally D'Amour, F. E. and Smith, D. L., “A method for determining loss of pain sensation”, J. Pharmacol. Exp. Therap., 72:74-79(1941); Dewey, D. L. and Harris, L. S., The Tail-flick test. In: S. Ehrenpreis and A. Neidle (Eds.), Methods in Narcotic Research, Marcel Dekker, Inc., New York, 1975, pp. 101-109; and Dubner, R. and Ren, K., “Assessing transient and persistent pain in animals” In: P. D. Wall and R. Melzack (Eds.), Textbook of Pain, Churchill Livingstone, London, 1999, pp. 359-369). Quite simply, the tail of a rat or mouse is exposed to radiant heat, and the latency to withdraw is determined. The basal heat intensity is set so that naive rats withdraw their tails within 2 to 3 sec. A cut-off latency of 10 sec (i.e., 3 to 4 times basal control value) is commonly employed to prevent tissue damage. […]
Three groups were employed in the present study with each group comprising of 8 animals. […] Area under the curve was calculated using a graph between % MPE and time. Area under the curve was employed as a quantitative measure of the analgesic effect of the treatments.
Nociceptive threshold was measured with the tail flick test (D'Amour and Smith, 1941). […] Tail flick latency is expressed as a percentage of the maximum possible effect (MPE): […]
On the technique in general: In hot-plate and tail-flick tests a longer latency is read as antinociception.

Another assay addresses δ-opioid receptor (Homo sapiens, UniProt P41143). The settings on record: cited from earlier work.

Chain of δ-opioid receptor (P41143 whole entry): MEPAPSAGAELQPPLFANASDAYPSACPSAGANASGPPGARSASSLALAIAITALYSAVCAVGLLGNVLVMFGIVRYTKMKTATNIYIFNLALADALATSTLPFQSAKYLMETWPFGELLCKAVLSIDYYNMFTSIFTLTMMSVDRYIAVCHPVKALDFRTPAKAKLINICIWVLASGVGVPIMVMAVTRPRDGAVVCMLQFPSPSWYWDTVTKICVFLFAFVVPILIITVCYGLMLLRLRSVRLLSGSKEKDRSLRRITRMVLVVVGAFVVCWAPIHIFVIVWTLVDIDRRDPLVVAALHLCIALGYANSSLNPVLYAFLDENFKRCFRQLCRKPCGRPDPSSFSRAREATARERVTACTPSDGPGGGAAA

For `Oc1ccc2c(c1)[C@@]13CCCC[C@@]1(O)[C@@H](C2)N(CC1CCC1)CC3` [butorphanol, (−)17-(Cyclobutylmethyl)morphinan-3,14-diol], the mechanical withdrawal threshold result in assay [1] (oral 1, 3, 10, 30 mg/kg, FIG. 19) is on record as “dose dependent increase; also recorded: significant increase”. Further, in assay [1] (oral), the “time of peak effect post-administration (mechanical allodynia)” value is 30 min. Further, the tail flick latency entry with nociception in rats (intra-gastric, intra-ileal and intra-colonic administration, each, rats) was “significant increase”. Moreover, the “antinociceptive effect (area under the curve of % MPE vs time), intra-colonic versus intra-gastric or intra-ileal” value in the assay with nociception in rats (tail flick, FIG. 13) is “significantly greater antinociceptive effect”. The “activity at the δ-opioid receptor” value at δ-opioid receptor is listed as “preponderantly antagonist activity”.
